Measurements as given in PubChem BioAssay AID248 (DTP/NCI, 2004).
Several values for one entry are separate records, joined by “and”; a condition that tells them apart may be missing. Equal values may be shown once. Toxic doses and inconclusive results are not listed. No stated cut-off is given here; in the data, active means T/C of 150% or more; inactive means T/C below 125%.

Test system: L1210 leukemia ip in BDF1 mice, survival T/C
Assay: NCI In Vivo Anticancer Drug Screen. Data for tumor model L1210 Leukemia (intraperitoneal) in B6D2F1 (BDF1) mice
Details: endpoint: mean survival time, higher = longer survival
Outline: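 Mice bearing the transplanted tumor received compound or vehicle. Survival of the treated group was divided by that of the vehicle-treated control group to give the ratio.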

[1] = dose: 50.0 mg/kg/injection, schedule: Q04DX003 (ip), vehicle: Klucel (hydroxypropylcellulose) (HPC)
[2] = dose: 100.0 mg/kg/injection, schedule: Q04DX003 (ip), vehicle: Klucel (hydroxypropylcellulose) (HPC)
[3] = dose: 100.0 mg/kg/injection, schedule: Q04DX003 (ip), vehicle: saline
[4] = dose: 200.0 mg/kg/injection, schedule: Q04DX003 (ip), vehicle: saline
[5] = dose: 400.0 mg/kg/injection, schedule: Q04DX003 (ip), vehicle: saline
[6] = dose: 100.0 mg/kg/injection, schedule: Q04DX002 (ip), vehicle: saline with Tween-80
[7] = dose: 200.0 mg/kg/injection, schedule: Q04DX002 (ip), vehicle: saline with Tween-80
[8] = dose: 400.0 mg/kg/injection, schedule: Q04DX002 (ip), vehicle: saline with Tween-80
[9] = dose: 100.0 mg/kg/injection, schedule: Q01DX009 (ip), vehicle: saline with Tween-80
[10] = dose: 200.0 mg/kg/injection, schedule: Q01DX009 (ip), vehicle: saline with Tween-80
[11] = dose: 400.0 mg/kg/injection, schedule: Q01DX009 (ip), vehicle: saline with Tween-80
[12] = dose: 25.0 mg/kg/injection, schedule: Q04DX002 (ip), vehicle: Klucel (hydroxypropylcellulose) (HPC)
[13] = dose: 50.0 mg/kg/injection, schedule: Q04DX002 (ip), vehicle: Klucel (hydroxypropylcellulose) (HPC)
[14] = dose: 100.0 mg/kg/injection, schedule: Q04DX002 (ip), vehicle: Klucel (hydroxypropylcellulose) (HPC)
[15] = dose: 100.0 mg/kg/injection, schedule: Q01DX001 (ip), vehicle: saline
[16] = dose: 200.0 mg/kg/injection, schedule: Q01DX001 (ip), vehicle: saline
[17] = dose: 400.0 mg/kg/injection, schedule: Q01DX001 (ip), vehicle: saline
[18] = dose: 100.0 mg/kg/injection, schedule: Q01DX001 (ip), vehicle: carboxymethylcellulose (CMC)
[19] = dose: 200.0 mg/kg/injection, schedule: Q01DX001 (ip), vehicle: carboxymethylcellulose (CMC)
[20] = dose: 50.0 mg/kg/injection, schedule: Q01DX001 (ip), vehicle: saline

Measured: T/C

O=C(CCl)NC1=C(N2CC2)C(=O)c2ccccc2C1=O
inactive: [1] 93 % of control | [2] 91 % of control

O=C(OCCl)c1ccc(Cl)c(Cl)c1
inactive: dose: 25.0 mg/kg/injection, schedule: Q04DX003 (ip), vehicle: Klucel (hydroxypropylcellulose) (HPC) 95 % of control | [1] 98 % of control | [2] 101 % of control

CCOC(=O)C(OCC)c1ccccc1 (stereo not drawn)
inactive: [3] 97 % of control | [4] 101 % of control | [5] 89 % of control

CC1(C)CCC2=C(O1)C(=O)c1ccccc1C2=O
inactive: dose: 100.0 mg/kg/injection, schedule: Q01DX001 (ip), vehicle: saline with Tween-80 102 % of control | dose: 200.0 mg/kg/injection, schedule: Q01DX001 (ip), vehicle: saline with Tween-80 104 % of control | dose: 400.0 mg/kg/injection, schedule: Q01DX001 (ip), vehicle: saline with Tween-80 94 % of control

CCCCCC[CH2][Ge][CH2]CCCCCC
inactive: [6] 95 % of control | [7] 92 % of control | [8] 103 % of control

CC(NC(=O)c1ccc(Cl)c(Cl)c1)c1ccc(-c2ccccc2)cc1 (stereo not drawn)
inactive: [6] 102 % of control | [7] 91 % of control | [8] 87 % of control

O=C(CNC(=O)c1ccccc1)N/N=C/c1ccncc1
inactive: dose: 25.0 mg/kg/injection, schedule: Q01DX009 (ip), vehicle: saline with Tween-80 91 % of control | dose: 50.0 mg/kg/injection, schedule: Q01DX009 (ip), vehicle: saline with Tween-80 93 % of control | [9] 86 % of control

CCOC(=O)CC(C)(N)NC(N)=O (stereo not drawn)
inactive: [9] 98 % of control | [3] 104 % of control | [10] 93 % of control | [4] 106 % of control | [11] 90 % of control | [5] 106 % of control

CCOC(=O)c1cnc(C)nc1NCc1ccco1
inactive: [2] 103 % of control | dose: 200.0 mg/kg/injection, schedule: Q04DX003 (ip), vehicle: Klucel (hydroxypropylcellulose) (HPC) 95 % of control | dose: 400.0 mg/kg/injection, schedule: Q04DX003 (ip), vehicle: Klucel (hydroxypropylcellulose) (HPC) 98 % of control

O=C(CCl)N1CCC(C(O)c2cc3ccccc3n2S(=O)(=O)c2ccccc2)CC1 (stereo not drawn)
inactive: [6] 94 % of control | [7] 94 % of control | [8] 97 % of control

CCN=C(N)CSS(=O)(=O)O
inactive: [12] 100 % of control | [13] 97 % of control | [14] 95 % of control and 110 % of control

CCCCCCC1(C)NC(=O)NC1=O (stereo not drawn)
inactive: [15] 102 % of control | [16] 100 % of control | [17] 96 % of control

O=C(O)/C(=C\c1ccccc1)c1cccc2ccccc12
inactive: dose: 100.0 mg/kg/injection, schedule: Q01DX009 (ip), vehicle: Klucel (hydroxypropylcellulose) (HPC) 100 % of control | dose: 200.0 mg/kg/injection, schedule: Q01DX009 (ip), vehicle: Klucel (hydroxypropylcellulose) (HPC) 98 % of control

CCCCCCCCCCS
inactive: [18] 114 % of control | [19] 101 % of control

c1ccc(C2C(CN3CCCCCC3)C2c2ccccc2)cc1 (stereo not drawn)
inactive: dose: 12.5 mg/kg/injection, schedule: Q04DX002 (ip), vehicle: Klucel (hydroxypropylcellulose) (HPC) 88 % of control | [12] 95 % of control and 98 % of control | [13] 98 % of control and 101 % of control and 91 % of control | [14] 92 % of control

O=C(Nc1ccc(Cl)cc1)Nc1ncn[nH]1
inactive: dose: 75.0 mg/kg/injection, schedule: Q01DX001 (ip), vehicle: carboxymethylcellulose (CMC) 101 % of control | dose: 150.0 mg/kg/injection, schedule: Q01DX001 (ip), vehicle: carboxymethylcellulose (CMC) 97 % of control | dose: 300.0 mg/kg/injection, schedule: Q01DX001 (ip), vehicle: carboxymethylcellulose (CMC) 95 % of control

CC(C)=CCCC(C)C/C=N\N=C(N)N (stereo not drawn)
inactive: dose: 15.0 mg/kg/injection, schedule: Q01DX Z (ip), vehicle: carboxymethylcellulose (CMC) 95 % of control | dose: 30.0 mg/kg/injection, schedule: Q01DX Z (ip), vehicle: carboxymethylcellulose (CMC) 98 % of control | dose: 30.0 mg/kg/injection, schedule: Q01DX Z (oral), vehicle: carboxymethylcellulose (CMC) 118 % of control | dose: 60.0 mg/kg/injection, schedule: Q01DX Z (ip), vehicle: carboxymethylcellulose (CMC) 97 % of control | dose: 60.0 mg/kg/injection, schedule: Q01DX Z (oral), vehicle: carboxymethylcellulose (CMC) 101 % of control | dose: 120.0 mg/kg/injection, schedule: Q01DX Z (oral), vehicle: carboxymethylcellulose (CMC) 97 % of control | dose: 240.0 mg/kg/injection, schedule: Q01DX Z (oral), vehicle: carboxymethylcellulose (CMC) 101 % of control

Cn1cc2c(=O)n(O)c(=O)[nH]c2n1
inactive: [20] 106 % of control | [15] 100 % of control | [16] 102 % of control | [17] 102 % of control

NC(N)=NC(N)=NCc1ccc(S(N)(=O)=O)cc1
inactive: [15] 102 % of control | dose: 100.0 mg/kg/injection, schedule: Q01DX009 (ip), vehicle: saline 96 % of control | [16] 94 % of control | dose: 200.0 mg/kg/injection, schedule: Q01DX009 (ip), vehicle: saline 100 % of control | [17] 103 % of control | dose: 400.0 mg/kg/injection, schedule: Q01DX009 (ip), vehicle: saline 97 % of control

COC(=O)c1cc(=O)c2c(=O)n(Cc3ccccc3)c(=O)n(Cc3ccccc3)c2[nH]1
inactive: dose: 100.0 mg/kg/injection, schedule: Q01DX001 (ip), vehicle: Klucel (hydroxypropylcellulose) (HPC) 106 % of control | dose: 200.0 mg/kg/injection, schedule: Q01DX001 (ip), vehicle: Klucel (hydroxypropylcellulose) (HPC) 100 % of control | dose: 400.0 mg/kg/injection, schedule: Q01DX001 (ip), vehicle: Klucel (hydroxypropylcellulose) (HPC) 118 % of control

COc1cc2c(cc1OC)-c1c(OC)c(OC)cc3c1[C@H](C2)N(C)CC3
inactive: [18] 96 % of control | [19] 100 % of control | dose: 400.0 mg/kg/injection, schedule: Q01DX001 (ip), vehicle: carboxymethylcellulose (CMC) 100 % of control

COc1ccc(C(C)=O)c(O)c1C
inactive: [9] 111 % of control | [10] 94 % of control | [11] 92 % of control

O=[N+]([O-])c1ccc(NN=C(CO)CO)c([N+](=O)[O-])c1
inactive: dose: 100.0 mg/kg/injection, schedule: Q01DX005 (ip), vehicle: saline 98 % of control | [3] 101 % of control | dose: 200.0 mg/kg/injection, schedule: Q01DX005 (ip), vehicle: saline 93 % of control | [4] 100 % of control | dose: 400.0 mg/kg/injection, schedule: Q01DX005 (ip), vehicle: saline 86 % of control | [5] 100 % of control

O=C(CSc1cc(Cl)c(Cl)cc1Cl)Nc1cccc(Br)c1
inactive: dose: 50.0 mg/kg/injection, schedule: Q04DX003 (ip), vehicle: saline with Tween-80 94 % of control | dose: 100.0 mg/kg/injection, schedule: Q04DX003 (ip), vehicle: saline with Tween-80 87 % of control | dose: 200.0 mg/kg/injection, schedule: Q04DX003 (ip), vehicle: saline with Tween-80 96 % of control

CCCCCCCCCCSc1ncnc2c1ncn2CO
inactive: [20] 91 % of control | [15] 101 % of control | [16] 117 % of control | [17] 120 % of control
